# Reference: US8314068B2, “P2X7 inhibition of epithelial cancers and papillomas” (University Hospitals of Cleveland, priority 2009, dated 2012)
# Assays:
# [1] = test system: DMBA/TPA-induced skin papillomas; assay: DMBA/TPA mouse skin papilloma model, 12 weeks (Experiment-3); type: in vivo
# [2] = test system: mouse wild-type normal keratinocytes; assay: Apoptosis in cultured mouse wild-type keratinocytes; type: cell-based; conditions: 8 hours
# [3] = test system: P2X7−/−Pf and P2X7−/−GSK keratinocytes; assay: Apoptosis in keratinocytes of P2X7-receptor-deficient mice; type: cell-based, mouse; conditions: 100 μM BzATP
# Procedure: FIG. 16C: BzATP time-response effect in cultured mouse normal keratinocytes (wild-type, C57B1; filled triangles), or in keratinocytes obtained from C57B1 background P2X7-deficient mice (P2X7^−/−Pfizer; empty circles; or P2X7^−/−GSK; filled circles). Values are means (±SD) of 3 experiments for each condition. Changes in apoptosis were determined using cell-death detection ELISA.
# Apoptosis of cultured mouse keratinocytes was quantified in terms of percent solubilized DNA, or by using the commercial cell-death detection ELISA kit (Roche Applied Science, Nutley, N.J.). Wang et al., “P2X7-receptor mediated apoptosis of human cervical epithelial cells” Am J Physiol 2004, 287:C1349-C1358; and Feng et al., “A truncated P2X7 receptor variant (P2X7-j) endogenously expressed in cervical cancer cells antagonizes the full-length P2X7 receptor through hetero-oligomerization” J Biol Chem 2006, 281:17228-17237, respectively.
# The experiments utilized primary cultures of epidermal keratinocytes generated from 6-8 weeks old wild-type C57B1 mice (Charles River, Wilmington, Mass.); from P2X7^−/−Pfizer mice constructed by deletion of amino acids 506-532 of the C-terminus (Solle et al., “Altered cytokine production in mice lacking P2X(7) receptors” J Biol Chem 2001, 276:125-32), or from P2X7^−/−GSK mice, which have a lacZ gene inserted at the beginning of exon 1, resulting knockout of the receptor. […]
# [4] = test system: P2X7 pores; assay: Ethidium bromide influx (P2X7 pore formation) in mouse wild-type keratinocytes; type: cell-based
# Procedure: FIG. 17B: Time course of influx of ethidium bromide (Eth-Br).
# FIG. 17C: Dose response profile comparison between ΔCa^2+i and Eth-Br influx. Cells were treated with each BzATP concentration for […]. Levels of ΔCa^2+i (empty circles) were determined 2 min after adding BzATP; changes in Eth-Br fluorescence (filled circles) were determined 5 min after adding BzATP. Values=means±SD. Experiments were repeated 3 times. AU=arbitrary units.
# Changes in Ca^2+i in cultured cells were determined in terms of changes in intracellular Fluo-4 fluorescence using dynamic confocal laser scanning microscopy. Cultured mouse keratinocytes were loaded with 5 μM Fluo-4/AM, and imaged with a Zeiss LSM 510 inverted real-time confocal microscope. Images were collected at 488 nm/505 nm (exc/emi) at intervals of 10 to 15 seconds after treatment with 100 μM BzATP, added to the perfusate. For ethidium bromide influx experiments, glass-bottomed dishes cultured with mouse keratinocytes were placed in the microscope. Images (collected at 488 nm/505 nm [exc/emi]) were taken before, and at intervals of 30 seconds after adding 5 μM ethidium bromide to the perfusate as described. Average fluorescence intensity was quantified from collated images using MetaVue software (Fryer Company Inc., Huntley, Ill.) by subtracting the basal intensity value.
# [5] = test system: mouse wild-type normal keratinocytes; assay: DNA synthesis ([3H]-thymidine incorporation) in mouse wild-type normal keratinocytes; type: cell-based; conditions: BzATP 100 μM 8 hours; oligonucleotides 100 μM 14 hours
# Procedure: FIG. 20 presents exemplary data showing the effects of pre-treatment with anti-sense P2X7 oligonucleotides (ASO) or random-control P2X7 oligonucleotides (RCO) (both at 100 μM for 14 hours), and of treatments with BzATP (100 μM, 8 hours) on [^3H]-thymidine incorporation in mouse wild-type normal keratinocytes (values are means±SD, n=4).
# Changes in DNA synthesis were determined in terms of [^3H]-thymidine incorporation as described Wang et al., “EGF facilitates epinephrine inhibition of P2X7-receptor mediated pore formation and apoptosis: a novel signaling network” Endocrinology 2005, 146:164-174. The radioactivity (dpm/mg Protein, determined by Bio-Rad Protein Assay solution [Hercules, Calif.]) of triplicated samples was determined by beta scintillation counting (Beckman LS1801 scintillation counter).
structure (smiles),measurement,setting,value
"Nc1ncnc2c1ncn2[C@@H]1O[C@H](COP(=O)(O)OP(=O)(O)OP(=O)(O)O)[C@@H](OC(=O)c2ccc(C(=O)c3ccccc3)cc2)[C@H]1O [BzATP, 3′-O-(4-benzoylbenzoyl)adenosine triphosphate]",TUNEL staining of papilloma tissues,"[1]; biopsy at week 10, basal/parabasal regions",intense TUNEL staining
same,decrease of mean number of papillomas per animal,[1]; versus DMBA/TPA group,about 25%
same,decrease of mean papilloma size,[1]; versus DMBA/TPA group,about 45%
same,animals having at least one papilloma,"[1]; week 6, DMBA/TPA+BzATP group",53.8%
same,papillomas per animal (mean±SEM),"[1]; week 10, DMBA/TPA+BzATP group",1.23±0.34
same,animals with at least one skin papilloma,"[1]; week 12, DMBA/TPA+BzATP group",78%
same,mean papilloma size per animal (mean±SEM),"[1]; week 12, DMBA/TPA+BzATP group",3.46 ±0.73 mm
same,concentration of maximal apoptosis effect,[2],100 to 250 µM
same,lowest BzATP level at which apoptosis effects began,[2],50 nM
same,EC50,"[2]; Mus musculus, Keratinocyte, read-out: estimated EC50 of apoptosis augmentation",~10 µM
same,induction of apoptosis,[3],failed to induce apoptosis
same,"concentration of pre-maximal response, ethidium bromide influx",[4],100 to 250 µM
same,onset of pore formation and augmented calcium influx after adding BzATP,[4],30 to 60 s
same,"threshold concentration, ethidium bromide influx",[4],50 to 100 nM
same,influx of ethidium bromide,[4]; 100 μM BzATP,acute increase in the influx of ethidium bromide
same,effect on [3H]-thymidine incorporation,[5],no significant effect
